Reference: patent US8962684B2, “Antioxidant composition” (Shiseido Company, Ltd., priority 2009, dated 2015)

Columns and labels:
[1] = system: human neonatal skin fibroblast cells (Cryo NHDF-Neo); experiment: Antioxidant effect on oxidative damages induced by hydrogen peroxide (AlamarBlue viable cell ratio); format: cell-based; details: for antioxidant effect on hydrogen peroxide: conclusion in words
Method: (§1) For the evaluation of an antioxidant effect on hydrogen peroxide, human neonatal skin fibroblast cells (trade name: Cryo NHDF-Neo, manufactured by Sankyo Junyaku Co., Ltd.) were inoculated to a 24-well plate to have 1×10^5 cells per well. The cells were then cultured for four hours in a medium for cell culture (trade name: D-MEM (1 g/L glucose), manufactured by Wako Pure Chemical Industries) supplemented with 10% bovine fetal serum (herein below, referred to as a “standard medium”) in a 5% CO2 and saturated water vapor atmosphere at 37° C. (degrees Celsius). For the evaluation of an antioxidant effect on AAPH, antibiotics (penicillin, streptomycin, and fungizone) were supplemented to the standard medium and the cells were cultured for one day.
(§2) Subsequently, the culture medium was switched to a medium for cell culture (trade name: D-MEM (1 g/L glucose), manufactured by Wako Pure Chemicals Industries) supplemented with 0.5% bovine fetal serum (herein below, referred to as “low-serum medium”) to which 0.01% or 0.05% carnosine, or 0.1 μM (micro-molar) or 10 μM (micro-molar) D- or L-aspartic acid had been added, and the cells were cultured for two days under atmosphere of 5% CO2 and saturated moisture at 37° C. (degrees Celsius). For the experiment for the evaluation of oxidative damages on AAPH, the culture medium was switched to the medium for cell culture to which 5 ppm or 100 ppm carnosine, or 10 μM (micro-molar) D- or L-aspartic acid had been further added, and the cells were cultured for two days. The low-serum medium described above to which neither carnosine nor aspartic acid had been added was employed as a negative control.
(§3) After culturing for two days, 1 mM or 4 mM hydrogen peroxide, or 50 mM or 100 mM AAPH was added to the medium for evaluating an antioxidant effect, and the antioxidant effect was evaluated for carnosine or aspartic acid. The low-serum medium described above to which neither hydrogen peroxide nor AAPH had been added was employed as a control for evaluation of toxicity of an antioxidant when no oxidant was added.
(§4) Two hours after the addition of hydrogen peroxide or AAPH, AlarmarBlue (trade name: Biosource, manufactured by Biosource International Inc.) was added to have final concentration of 10%. Two to three hours later, according to the methods by Ahmed S. A. et al. (J. Immunol. Method., 170, 211-224 (1994)) and the instructions provided by the manufacturer, the fluorescent intensity of the supernatant was measured with an excitation wavelength of 544 nm, and an emission wavelength of 590 nm.

[2] = system: human neonatal skin fibroblast cells (Cryo NHDF-Neo); experiment: Antioxidant effect on oxidative damages induced by AAPH (AlamarBlue viable cell ratio); format: cell-based; details: for antioxidant effect on AAPH: conclusion in words
Method: as §1, §2, §3, §4

[3] = 1 mM hydrogen peroxide, test substance 0.1 μM
[4] = 1 mM hydrogen peroxide, test substance 10 μM
[5] = 4 mM hydrogen peroxide, test substance 0.1 μM
[6] = 4 mM hydrogen peroxide, test substance 10 μM
[7] = without addition of an oxidant (toxicity control), test substance 0.1 μM
[8] = without addition of an oxidant (toxicity control), test substance 10 μM
[9] = 100 mM AAPH, test substance 10 μM
[10] = without addition of the oxidant (toxicity control), test substance 10 μM

Structure (SMILES) | ratio of viable cells [1, 3] [%] | ratio of viable cells [1, 4] [%] | ratio of viable cells [1, 5] [%] | ratio of viable cells [1, 6] [%] | antioxidant effect on hydrogen peroxide [1] | ratio of viable cells [1, 7] [%] | ratio of viable cells [1, 8] [%] | ratio of viable cells [2, 9] [%] | antioxidant effect on AAPH [2] | ratio of viable cells [2, 10] [%] | ratio of viable cells ([1]; 1 mM hydrogen peroxide, test substance 0.01%) [%] | ratio of viable cells ([1]; 1 mM hydrogen peroxide, test substance 0.05%) [%] | ratio of viable cells ([1]; 4 mM hydrogen peroxide, test substance 0.01%) [%] | ratio of viable cells ([1]; 4 mM hydrogen peroxide, test substance 0.05%) [%] | ratio of viable cells ([1]; without addition of an oxidant (toxicity control), test substance 0.01%) [%] | ratio of viable cells ([1]; without addition of an oxidant (toxicity control), test substance 0.05%) [%] | ratio of viable cells ([2]; 100 mM AAPH, test substance 5 ppm) [%] | ratio of viable cells ([2]; 100 mM AAPH, test substance 100 ppm) [%] | ratio of viable cells ([2]; without addition of an oxidant (toxicity control), test substance 5 ppm) [%] | ratio of viable cells ([2]; without addition of an oxidant (toxicity control), test substance 100 ppm) [%]
N[C@H](CC(=O)O)C(=O)O [D-aspartic acid] | 62 | 63 | 29 | 34 | concentration-dependent antioxidant effect | 86 | 97 | 96 | more potent antioxidant effect on AAPH compared to L-aspartic acid | 102 |  |  |  |  |  |  |  |  |  | 
NCCC(=O)N[C@@H](Cc1cnc[nH]1)C(=O)O [carnosine, reference compound] |  |  |  |  | confirmed |  |  |  | confirmed |  | 51 | 53 | 21 | 45 | 100 | 97 | 60 | 85 | 93 | 103
N[C@@H](CC(=O)O)C(=O)O [L-aspartic acid] | 62 | 62 | 33 | 32 | not observed | 88 | 97 | 69 | antioxidant effect on AAPH only | 80 |  |  |  |  |  |  |  |  |  | 
